Measurements reported in patent publication US8778881B2 (priority 2004, dated 2014).
Numbered stars: 1 amine (or outer) side, 2 acyl side, 3 side chain; on linkers, the order of the positions; unused ones are H or OH. Bridge positions count the residues as written; N and C are the ends. Square brackets hold non-standard residues; d marks the D form. Peptide text beside a SMILES is read from it. * marks the point of attachment. Ala(2-furyl) = N[C@@H](Cc1ccco1)C(=O)O; Orn(iPr) = CC(C)NCCC[C@H](N)C(=O)O; X1 = CCNCCC[C@H](N[*:1])C(=O)[*:2]; 2Pal = N[C@@H](Cc1ccccn1)C(=O)O; 4Pal = N[C@@H](Cc1ccncc1)C(=O)O; 2Thi = N[C@@H](Cc1cccs1)C(=O)O; Aad = N[C@@H](CCCC(=O)O)C(=O)O; Orn = NCCC[C@H](N)C(=O)O; Dab = NCC[C@H](N)C(=O)O; NHCH2CH2OH = OCCN*; NHOH = ON*

Each compound was assayed against T1, human oxytocin (hOT) receptor (Homo sapiens, UniProt P30559) (assay: luciferase-based transcriptional reporter assay expressing the human oxytocin (hOT) receptor, for selectivity). Conditions: not given.
T1 construct: expressed in transfected cells
T1 sequence (P30559 1-389): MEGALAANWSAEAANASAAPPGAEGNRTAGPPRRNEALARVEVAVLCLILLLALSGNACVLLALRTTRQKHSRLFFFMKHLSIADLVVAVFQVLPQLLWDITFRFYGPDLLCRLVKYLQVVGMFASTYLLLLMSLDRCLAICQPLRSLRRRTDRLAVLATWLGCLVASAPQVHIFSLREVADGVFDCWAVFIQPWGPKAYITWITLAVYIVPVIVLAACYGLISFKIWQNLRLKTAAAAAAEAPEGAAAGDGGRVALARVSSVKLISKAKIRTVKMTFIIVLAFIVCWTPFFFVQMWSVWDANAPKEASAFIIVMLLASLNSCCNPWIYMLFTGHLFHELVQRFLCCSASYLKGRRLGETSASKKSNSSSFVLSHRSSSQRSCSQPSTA
Assay type: cell-based
Description: Agonist activity of compounds on the hV1a receptor was determined in a transcriptional reporter assay by transiently transfecting a hV1a receptor expression DNA into HEK-293 cells in concert with a reporter DNA containing intracellular calcium responsive promoter elements regulating expression of firefly luciferase. See Boss, V., Talpade, D. J., Murphy, T. J. J. Biol. Chem. 1996, May 3; 271(18), 10429-10432 for further guidance on this assay. […] To determine selectivity, compounds were tested in luciferase-based transcriptional reporter assays expressing the human oxytocin (hOT) receptor. Assays for other receptors (hV2, hV1b, rat V1a and rat V2) were also conducted.
The EC50 value given is the geometric mean expressed in nanomol/L (nM). Selectivity values are given as EC50 ratios.
For `CC[C@H](C)[C@@H]1NC(=O)[C@H](Cc2ccco2)NC(=O)[C@@H](N)CSSC[C@@H](C(=O)N2CCC[C@H]2C(=O)N[C@@H](CCCNC(C)C)C(=O)NCC(N)=O)NC(=O)[C@H](CC(N)=O)NC(=O)[C@H](CC(N)=O)NC1=O` [Compound 42] (H-C[Ala(2-furyl)]INNCP[Orn(iPr)]G-NH2; disulfide 1-6), the “selectivity hOT/hV1a (class symbol)” value was “+ (key: +: selective hV1a receptor agonist; EC50 hOT/hV1a ratio not determined due to very low agonist efficacy (<30% compared to AVP) at the hOT receptor)”.
In the case of `CC[C@H](C)[C@@H]1NC(=O)[C@H](Cc2ccccn2)NC(=O)[C@@H](N)CSSC[C@@H](C(=O)N2CCC[C@H]2C(=O)N[C@@H](CCN)C(=O)NCC(N)=O)NC(=O)[C@H](CC(N)=O)NC(=O)[C@H](CCC(N)=O)NC1=O` [Compound 17] (H-C[2Pal]IQNCP[Dab]G-NH2; disulfide 1-6), the “selectivity hOT/hV1a (class symbol)” value is reported as “+ (key: +: selective hV1a receptor agonist; EC50 hOT/hV1a ratio not determined due to very low agonist efficacy (<30% compared to AVP) at the hOT receptor)”.
`CC[C@H](C)[C@@H]1NC(=O)[C@H](Cc2ccccc2)NC(=O)[C@@H](N)CSSC[C@@H](C(=O)N2CCC[C@H]2C(=O)N[C@@H](CCN)C(=O)NCC(N)=O)NC(=O)[C@H](CC(N)=O)NC(=O)[C@H](CCCC(N)=O)NC1=O` [Compound 11] (H-CFI[Aad](NH2)NCP[Dab]G-NH2; disulfide 1-6) was tested, and the “selectivity hOT/hV1a (class symbol)” value was “+ (key: +: selective hV1a receptor agonist; EC50 hOT/hV1a ratio not determined due to very low agonist efficacy (<30% compared to AVP) at the hOT receptor)”.
For `CC[C@H](C)[C@@H]1NC(=O)[C@H](Cc2ccncc2)NC(=O)[C@@H](N)CSSC[C@@H](C(=O)N2CCC[C@H]2C(=O)N[C@@H](CCN)C(=O)NCC(N)=O)NC(=O)[C@H](CC(N)=O)NC(=O)[C@H](CCC(N)=O)NC1=O` [Compound 12] (H-C[4Pal]IQNCP[Dab]G-NH2; disulfide 1-6), the “selectivity hOT/hV1a (class symbol)” value was “+ (key: +: selective hV1a receptor agonist; EC50 hOT/hV1a ratio not determined due to very low agonist efficacy (<30% compared to AVP) at the hOT receptor)”.

Same assay, conditions: agonist efficacy at the hOT receptor compared to AVP; ratio not determined
In the case of `CC[C@H](C)[C@@H]1NC(=O)[C@H](Cc2ccccc2)NC(=O)[C@@H](N)CSSC[C@@H](C(=O)N2CCC[C@H]2C(=O)N[C@@H](CCCN)C(=O)NCC(N)=O)NC(=O)[C@H](CC(N)=O)NC(=O)[C@H](CC(N)=O)NC1=O` [Compound 30] (H-CFINNCP[Orn]G-NH2; disulfide 1-6; N-terminus and C-terminus assumed), the “selectivity hOT/hV1a (class symbol)” value is reported as “+ (selective hV1a receptor agonist; EC50 hOT/hV1a ratio not determined due to very low agonist efficacy (<30% compared to AVP) at the hOT receptor)”.
In the case of `CC[C@H](C)[C@@H]1NC(=O)[C@H](Cc2cccs2)NC(=O)[C@@H](N)CSSC[C@@H](C(=O)N2CCC[C@H]2C(=O)N[C@@H](CCCN)C(=O)NCC(N)=O)NC(=O)[C@H](CC(N)=O)NC(=O)[C@H](CC(N)=O)NC1=O` [Compound 33] (H-C[2Thi]INNCP[Orn]G-NH2; disulfide 1-6; N-terminus and C-terminus assumed), the “selectivity hOT/hV1a (class symbol)” value is reported as “+ (selective hV1a receptor agonist; EC50 hOT/hV1a ratio not determined due to very low agonist efficacy (<30% compared to AVP) at the hOT receptor)”.
For `CC[C@H](C)[C@@H]1NC(=O)[C@H](Cc2ccccc2)NC(=O)[C@@H](N)CSSC[C@@H](C(=O)N2CCC[C@H]2C(=O)N[C@@H](CCCN)C(=O)NCC(N)=O)NC(=O)[C@H](CC(N)=O)NC(=O)[C@H](CC(=O)NO)NC1=O` [Compound 24] (H-CFID(NHOH)NCP[Orn]G-NH2; disulfide 1-6; N-terminus and C-terminus assumed), the “selectivity hOT/hV1a (class symbol)” value was “+ (selective hV1a receptor agonist; EC50 hOT/hV1a ratio not determined due to very low agonist efficacy (<30% compared to AVP) at the hOT receptor)”.
With `CC[C@H](C)[C@@H]1NC(=O)[C@H](Cc2ccco2)NC(=O)[C@@H](N)CSSC[C@@H](C(=O)N2CCC[C@H]2C(=O)N[C@@H](CCN)C(=O)NCC(N)=O)NC(=O)[C@H](CC(N)=O)NC(=O)[C@H](CC(N)=O)NC1=O` [Compound 44] (H-C[Ala(2-furyl)]INNCP[Dab]G-NH2; disulfide 1-6; N-terminus and C-terminus assumed) the “selectivity hOT/hV1a (class symbol)” value was “+ (selective hV1a receptor agonist; EC50 hOT/hV1a ratio not determined due to very low agonist efficacy (<30% compared to AVP) at the hOT receptor)”.
`CC[C@H](C)[C@@H]1NC(=O)[C@H](Cc2ccccc2)NC(=O)[C@@H](N)CSSC[C@@H](C(=O)N2CCC[C@H]2C(=O)N[C@@H](CCCN)C(=O)NCC(N)=O)NC(=O)[C@H](CC(N)=O)NC(=O)[C@H](CCC(=O)NO)NC1=O` [Compound 16] (H-CFIE(NHOH)NCP[Orn]G-NH2; disulfide 1-6; N-terminus and C-terminus assumed) was tested, and the “selectivity hOT/hV1a (class symbol)” value was “+ (selective hV1a receptor agonist; EC50 hOT/hV1a ratio not determined due to very low agonist efficacy (<30% compared to AVP) at the hOT receptor)”.
For `CCNCCC[C@H](NC(=O)[C@@H]1CCCN1C(=O)[C@@H]1CSSC[C@H](N)C(=O)N[C@@H](Cc2ccccc2)C(=O)N[C@@H]([C@@H](C)CC)C(=O)N[C@@H](CC(N)=O)C(=O)N[C@@H](CC(N)=O)C(=O)N1)C(=O)NCC(N)=O` [Compound 47] (H-CFINNCP[X1]G-NH2; disulfide 1-6; N-terminus and C-terminus assumed), the “selectivity hOT/hV1a (class symbol)” value was “+ (selective hV1a receptor agonist; EC50 hOT/hV1a ratio not determined due to very low agonist efficacy (<30% compared to AVP) at the hOT receptor)”.
In the case of `CC[C@H](C)[C@@H]1NC(=O)[C@H](Cc2ccccc2)NC(=O)[C@@H](N)CSSC[C@@H](C(=O)N2CCC[C@H]2C(=O)N[C@@H](CCCN)C(=O)NCC(N)=O)NC(=O)[C@H](CC(N)=O)NC(=O)[C@H](CC(=O)NC)NC1=O` [Compound 49] (H-CFID(NHMe)NCP[Orn]G-NH2; disulfide 1-6; N-terminus and C-terminus assumed), the “selectivity hOT/hV1a (class symbol)” value is reported as “+ (selective hV1a receptor agonist; EC50 hOT/hV1a ratio not determined due to very low agonist efficacy (<30% compared to AVP) at the hOT receptor)”.
In the case of `CC[C@H](C)[C@@H]1NC(=O)[C@H](Cc2ccccc2)NC(=O)[C@@H](N)CSSC[C@@H](C(=O)N2CCC[C@H]2C(=O)N[C@@H](CCCN)C(=O)NCC(N)=O)NC(=O)[C@H](CC(N)=O)NC(=O)[C@H](CC(=O)NCCO)NC1=O` [Compound 23] (H-CFID(NHCH2CH2OH)NCP[Orn]G-NH2; disulfide 1-6; N-terminus and C-terminus assumed), the “selectivity hOT/hV1a (class symbol)” value is reported as “+ (selective hV1a receptor agonist; EC50 hOT/hV1a ratio not determined due to very low agonist efficacy (<30% compared to AVP) at the hOT receptor)”.
`NCCCC[C@H](NC(=O)[C@@H]1CCCN1C(=O)[C@@H]1CSSC[C@H](NC(=O)CNC(=O)CNC(=O)CN)C(=O)N[C@@H](Cc2ccc(O)cc2)C(=O)N[C@@H](Cc2ccccc2)C(=O)N[C@@H](CCC(N)=O)C(=O)N[C@@H](CC(N)=O)C(=O)N1)C(=O)NCC(N)=O` [terlipressin, reference compound] (H-GGGCYFQNCPKG-NH2; disulfide 4-9) was tested, and the “selectivity hOT/hV1a (class symbol)” value was “+ (selective hV1a receptor agonist; EC50 hOT/hV1a ratio not determined due to very low agonist efficacy (<30% compared to AVP) at the hOT receptor)”.
For `CC[C@H](C)[C@@H]1NC(=O)[C@H](Cc2ccco2)NC(=O)[C@@H](N)CSSC[C@@H](C(=O)N2CCC[C@H]2C(=O)N[C@@H](CCCN)C(=O)NCC(N)=O)NC(=O)[C@H](CC(N)=O)NC(=O)[C@H](CC(N)=O)NC1=O` [Compound 38] (H-C[Ala(2-furyl)]INNCP[Orn]G-NH2; disulfide 1-6; N-terminus and C-terminus assumed), the “selectivity hOT/hV1a (class symbol)” value was “+ (selective hV1a receptor agonist; EC50 hOT/hV1a ratio not determined due to very low agonist efficacy (<30% compared to AVP) at the hOT receptor)”.
